How the values were obtained:
Assay type in all cases: functional, organism-based
[1] = tested on: Acinetobacter baumannii; assay: Antibacterial activity against Acinetobacter baumannii assessed as susceptible isolates at minimum inhibitory concentration of 2 ug/ml by CLSI broth microdilution method; parameters: scale not given: the % may be the effect or the level left
[2] = tested on: Klebsiella oxytoca; assay: Antibacterial activity against Klebsiella oxytoca assessed as susceptible isolates at minimum inhibitory concentration of 16 ug/ml by CLSI broth microdilution method; parameters: scale not given: the % may be the effect or the level left
[3] = tested on: Pseudomonas aeruginosa; assay: Antibacterial activity against Ciprofloxacin-resistant Pseudomonas aeruginosa assessed as susceptible isolates at minimum inhibitory concentration of 2 ug/ml by CLSI broth microdilution method; parameters: scale not given: the % may be the effect or the level left
[4] = tested on: Pseudomonas aeruginosa; assay: Antibacterial activity against Levofloxacin-resistant Pseudomonas aeruginosa assessed as susceptible isolates at minimum inhibitory concentration of 16 ug/ml by CLSI broth microdilution method; parameters: scale not given: the % may be the effect or the level left
[5] = tested on: Pseudomonas aeruginosa; assay: Antibacterial activity against MDR4 Pseudomonas aeruginosa assessed as susceptible isolates at minimum inhibitory concentration of 0.5 ug/ml by CLSI broth microdilution method; parameters: scale not given: the % may be the effect or the level left
[6] = tested on: Stenotrophomonas maltophilia; assay: Antibacterial activity against Stenotrophomonas maltophilia assessed as susceptible isolates at minimum inhibitory concentration of 0.25 ug/ml by CLSI broth microdilution method; parameters: scale not given: the % may be the effect or the level left
[7] = tested on: Serratia marcescens; assay: Antibacterial activity against Serratia marcescens assessed as susceptible isolates at minimum inhibitory concentration of 8 ug/ml by CLSI broth microdilution method; parameters: scale not given: the % may be the effect or the level left
[8] = tested on: Klebsiella aerogenes; assay: Antibacterial activity against Enterobacter aerogenes assessed as susceptible isolates at minimum inhibitory concentration of 0.25 ug/ml by CLSI broth microdilution method; parameters: scale not given: the % may be the effect or the level left
[9] = tested on: Klebsiella aerogenes; assay: Antibacterial activity against Enterobacter aerogenes assessed as susceptible isolates at minimum inhibitory concentration of 1 ug/ml by CLSI broth microdilution method; parameters: scale not given: the % may be the effect or the level left
[10] = tested on: Pseudomonas aeruginosa; assay: Antibacterial activity against Levofloxacin-resistant Pseudomonas aeruginosa assessed as susceptible isolates at minimum inhibitory concentration of 1 ug/ml by CLSI broth microdilution method; parameters: scale not given: the % may be the effect or the level left
[11] = tested on: Pseudomonas aeruginosa; assay: Antibacterial activity against Ciprofloxacin-resistant Pseudomonas aeruginosa assessed as susceptible isolates at minimum inhibitory concentration of >16 ug/ml by CLSI broth microdilution method; parameters: scale not given: the % may be the effect or the level left
[12] = tested on: Klebsiella pneumoniae; assay: Antibacterial activity against ESBL-producing Klebsiella pneumoniae assessed as susceptible isolates at minimum inhibitory concentration of 0.5 ug/ml by CLSI broth microdilution method; parameters: scale not given: the % may be the effect or the level left
[13] = tested on: Escherichia coli; assay: Antibacterial activity against ESBL-producing Escherichia coli assessed as susceptible isolates at minimum inhibitory concentration of >16 ug/ml by CLSI broth microdilution method; parameters: scale not given: the % may be the effect or the level left
[14] = tested on: Pseudomonas aeruginosa; assay: Antibacterial activity against Amikacin-resistant Pseudomonas aeruginosa assessed as susceptible isolates at minimum inhibitory concentration of >16 ug/ml by CLSI broth microdilution method; parameters: scale not given: the % may be the effect or the level left
[15] = tested on: Pseudomonas aeruginosa; assay: Antibacterial activity against Pseudomonas aeruginosa assessed as susceptible isolates at minimum inhibitory concentration of 0.25 ug/ml by CLSI broth microdilution method; parameters: scale not given: the % may be the effect or the level left
[16] = tested on: Klebsiella pneumoniae; assay: Antibacterial activity against ESBL-producing Klebsiella pneumoniae assessed as susceptible isolates at minimum inhibitory concentration of 4 ug/ml by CLSI broth microdilution method; parameters: scale not given: the % may be the effect or the level left
[17] = tested on: Pseudomonas aeruginosa; assay: Antibacterial activity against MDR Pseudomonas aeruginosa assessed as susceptible isolates at minimum inhibitory concentration of 2 ug/ml by CLSI broth microdilution method; parameters: scale not given: the % may be the effect or the level left
[18] = tested on: Pseudomonas aeruginosa; assay: Antibacterial activity against Pseudomonas aeruginosa assessed as resistant isolates at >=8 ug/ml by CLSI broth microdilution method
[19] = tested on: Pseudomonas aeruginosa; assay: Antibacterial activity against Amikacin-resistant Pseudomonas aeruginosa assessed as susceptible isolates at minimum inhibitory concentration of 0.5 ug/ml by CLSI broth microdilution method; parameters: scale not given: the % may be the effect or the level left
[20] = tested on: Pseudomonas aeruginosa; assay: Antibacterial activity against Meropenem-resistant Pseudomonas aeruginosa assessed as susceptible isolates at minimum inhibitory concentration of 0.5 ug/ml by CLSI broth microdilution method; parameters: scale not given: the % may be the effect or the level left
[21] = tested on: Enterobacter cloacae; assay: Antibacterial activity against Enterobacter cloacae assessed as susceptible isolates at minimum inhibitory concentration of 0.25 ug/ml by CLSI broth microdilution method; parameters: scale not given: the % may be the effect or the level left
[22] = tested on: Acinetobacter baumannii; assay: Antibacterial activity against Acinetobacter baumannii assessed as susceptible isolates at minimum inhibitory concentration of 0.25 ug/ml by CLSI broth microdilution method; parameters: scale not given: the % may be the effect or the level left
[23] = tested on: Klebsiella pneumoniae; assay: Antibacterial activity against ESBL-producing Klebsiella pneumoniae assessed as susceptible isolates at minimum inhibitory concentration of 1 ug/ml by CLSI broth microdilution method; parameters: scale not given: the % may be the effect or the level left
[24] = tested on: Klebsiella pneumoniae; assay: Antibacterial activity against ESBL-producing Klebsiella pneumoniae assessed as susceptible isolates at minimum inhibitory concentration of 2 ug/ml by CLSI broth microdilution method; parameters: scale not given: the % may be the effect or the level left
[25] = tested on: Stenotrophomonas maltophilia; assay: Antibacterial activity against Stenotrophomonas maltophilia assessed as susceptible isolates at minimum inhibitory concentration of 16 ug/ml by CLSI broth microdilution method; parameters: scale not given: the % may be the effect or the level left
[26] = tested on: Pseudomonas aeruginosa; assay: Antibacterial activity against Ciprofloxacin-resistant Pseudomonas aeruginosa assessed as susceptible isolates at minimum inhibitory concentration of 1 ug/ml by CLSI broth microdilution method; parameters: scale not given: the % may be the effect or the level left
[27] = tested on: Proteus mirabilis; assay: Antibacterial activity against Proteus mirabilis assessed as susceptible isolates at minimum inhibitory concentration of <=0.06 ug/ml by CLSI broth microdilution method; parameters: scale not given: the % may be the effect or the level left
[28] = tested on: Pseudomonas aeruginosa; assay: Antibacterial activity against tazobactam-resistant Pseudomonas aeruginosa assessed as susceptible isolates at minimum inhibitory concentration of 0.5 ug/ml by CLSI broth microdilution method; parameters: scale not given: the % may be the effect or the level left
[29] = tested on: Proteus mirabilis; assay: Antibacterial activity against Proteus mirabilis assessed as susceptible isolates at minimum inhibitory concentration of 1 ug/ml by CLSI broth microdilution method; parameters: scale not given: the % may be the effect or the level left
[30] = tested on: Pseudomonas aeruginosa; assay: Antibacterial activity against Pseudomonas aeruginosa assessed as susceptible isolates at minimum inhibitory concentration of <=0.06 ug/ml by CLSI broth microdilution method; parameters: scale not given: the % may be the effect or the level left
[31] = tested on: Pseudomonas aeruginosa; assay: Antibacterial activity against MDR Pseudomonas aeruginosa assessed as susceptible isolates at minimum inhibitory concentration of 0.5 ug/ml by CLSI broth microdilution method; parameters: scale not given: the % may be the effect or the level left
[32] = tested on: Stenotrophomonas maltophilia; assay: Antibacterial activity against Stenotrophomonas maltophilia assessed as susceptible isolates at minimum inhibitory concentration of 0.5 ug/ml by CLSI broth microdilution method; parameters: scale not given: the % may be the effect or the level left
[33] = tested on: Stenotrophomonas maltophilia; assay: Antibacterial activity against Stenotrophomonas maltophilia assessed as susceptible isolates at minimum inhibitory concentration of 8 ug/ml by CLSI broth microdilution method; parameters: scale not given: the % may be the effect or the level left
[34] = tested on: Klebsiella pneumoniae; assay: Antibacterial activity against ESBL-producing Klebsiella pneumoniae assessed as susceptible isolates at minimum inhibitory concentration of >16 ug/ml by CLSI broth microdilution method; parameters: scale not given: the % may be the effect or the level left
[35] = tested on: Pseudomonas aeruginosa; assay: Antibacterial activity against Cefepime-resistant Pseudomonas aeruginosa assessed as susceptible isolates at minimum inhibitory concentration of 1 ug/ml by CLSI broth microdilution method; parameters: scale not given: the % may be the effect or the level left
[36] = tested on: Pseudomonas aeruginosa; assay: Antibacterial activity against Levofloxacin-resistant Pseudomonas aeruginosa assessed as susceptible isolates at minimum inhibitory concentration of 0.5 ug/ml by CLSI broth microdilution method; parameters: scale not given: the % may be the effect or the level left
[37] = tested on: Pseudomonas aeruginosa; assay: Antibacterial activity against Cefepime-resistant Pseudomonas aeruginosa assessed as susceptible isolates at minimum inhibitory concentration of 0.5 ug/ml by CLSI broth microdilution method; parameters: scale not given: the % may be the effect or the level left
[38] = tested on: Pseudomonas aeruginosa; assay: Antibacterial activity against Gentamicin-resistant Pseudomonas aeruginosa assessed as susceptible isolates at minimum inhibitory concentration of 4 ug/ml by CLSI broth microdilution method; parameters: scale not given: the % may be the effect or the level left
[39] = tested on: Pseudomonas aeruginosa; assay: Antibacterial activity against Pseudomonas aeruginosa assessed as susceptible isolates at minimum inhibitory concentration of 2 ug/ml by CLSI broth microdilution method; parameters: scale not given: the % may be the effect or the level left
[40] = tested on: Proteus mirabilis; assay: Antibacterial activity against Proteus mirabilis assessed as susceptible isolates at minimum inhibitory concentration of 8 ug/ml by CLSI broth microdilution method; parameters: scale not given: the % may be the effect or the level left

Sequence COLISTIN has an Activity [1] of 93.5%, an Activity [2] of 98.1% and an Activity [3] of 92.5%. It also gave an Activity [4] of 98.2%, an Activity [5] of 7.7% and an Activity [6] of 1.2%. It also gave an Activity [7] of 1.9%, an Activity [8] of 18.9% and an Activity [9] of 97.3%. For the same sequence, the Activity [10] was 30.7%, the Activity [11] was 100% and the Activity [12] was 77.9%. For the same sequence, the Activity [13] was 100%, the Activity [14] was 100% and the Activity [15] was 0%. It also gave an Activity [16] of 97.7%, an Activity [17] of 100% and an Activity [18] of 1.1%. It also gave an Activity [19] of 5.3%, an Activity [20] of 3.5% and an Activity [21] of 14%. For the same sequence, the Activity [22] was 0%, the Activity [23] was 95% and the Activity [24] was 97.1%. The Activity [25] was 56.6%, the Activity [26] was 31.3% and the Activity [27] was 0%. The Activity [28] was 1.8%, the Activity [29] was 0% and the Activity [30] was 0%. For the same sequence, the Activity [31] was 5.3%, the Activity [32] was 4.8% and the Activity [33] was 50.6%. It also gave an Activity [34] of 100%, an Activity [35] of 39.7% and an Activity [36] of 1.8%. It also gave an Activity [37] of 6.8%, an Activity [38] of 99% and an Activity [39] of 91.6%. It also gave an Activity [40] of 0%.

Reference: ChEMBL document CHEMBL1671673, “In vitro activity of colistin (polymyxin E) against 3,480 isolates of gram-negative bacilli obtained from patients in Canadian hospitals in the CANWARD study, 2007-2008” (Antimicrob Agents Chemother, 2009)
